This is an account of results in patent publication US9617226B2 (AbbVie Deutschland GmbH & Co. KG, priority 2014, dated 2017).

Experiment [1] deals with human vasopressin V1a receptor (Homo sapiens (Human), UniProt P37288). Briefly: Vasopressin V1a receptor binding assay. To be noted: selectivity quotient, human V1a vs human V1b. As for the experimental part:
The test substances were dissolved in a concentration of 5 mM M in DMSO. Further dilution of these DMSO solutions took place as described for V1b.
The membrane pellet was again homogenized in a High-Pressure-Homogenizer, Polytec 50K at 1500 PSI (Heinemann, Germany) and subsequently taken up in 50 mM Tris-HCl, pH 7.4, homogenized and stored in aliquots frozen in liquid nitrogen at −190° C.
The incubation buffer was: 50 mM Tris, 10 mM MgCl2, 0.1% BSA, pH 7.4.
Duplicate determinations were carried out.
After incubation (60 minutes at room temperature), the samples were processed as described for V1b.
The binding parameters were calculated by nonlinear regression in SAS.

For experiment [2], the target named is human vasopressin V1b receptor (Homo sapiens (Human), UniProt P47901). Briefly: biochemical.
Chain of human vasopressin V1b receptor (P47901 whole entry): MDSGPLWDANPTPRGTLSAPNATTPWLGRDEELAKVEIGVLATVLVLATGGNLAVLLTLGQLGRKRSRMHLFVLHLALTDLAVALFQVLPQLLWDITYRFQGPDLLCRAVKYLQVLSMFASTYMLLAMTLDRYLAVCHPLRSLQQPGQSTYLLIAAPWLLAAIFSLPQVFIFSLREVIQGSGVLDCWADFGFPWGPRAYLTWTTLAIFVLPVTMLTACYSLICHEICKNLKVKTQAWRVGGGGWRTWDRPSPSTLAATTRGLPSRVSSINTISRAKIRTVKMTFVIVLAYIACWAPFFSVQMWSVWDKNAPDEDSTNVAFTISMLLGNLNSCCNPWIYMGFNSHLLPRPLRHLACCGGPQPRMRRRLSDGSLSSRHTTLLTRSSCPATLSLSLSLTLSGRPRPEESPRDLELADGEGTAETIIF

Chain of human vasopressin V1a receptor (P37288 whole entry): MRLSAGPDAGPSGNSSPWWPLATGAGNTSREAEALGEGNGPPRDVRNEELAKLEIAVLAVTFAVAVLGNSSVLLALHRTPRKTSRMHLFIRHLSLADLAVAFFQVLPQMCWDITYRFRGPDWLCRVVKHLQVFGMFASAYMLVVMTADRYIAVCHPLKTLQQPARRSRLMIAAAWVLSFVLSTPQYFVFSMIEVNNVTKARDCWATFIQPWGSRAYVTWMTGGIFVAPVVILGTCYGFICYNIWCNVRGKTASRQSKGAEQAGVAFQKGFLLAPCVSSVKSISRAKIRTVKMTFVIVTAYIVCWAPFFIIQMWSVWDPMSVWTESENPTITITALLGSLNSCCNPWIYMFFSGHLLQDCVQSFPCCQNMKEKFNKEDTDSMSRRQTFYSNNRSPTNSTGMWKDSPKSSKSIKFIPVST

For the molecule `CC(C)NC(=O)Cn1c(-c2cccc(Cl)c2)nc2ccc([C@H]3C[C@@H](CN4CCOC[C@H]4C)C3)cc2c1=O` [Example 44, cis-2-[2-(3-Chlorophenyl)-6-[3-[[(3R)-3-methylmorpholin-4-yl]methyl]cyclobutyl]-4-oxo-quinazolin-3-yl]-N-isopropyl-acetamide], the “Ki(h-V1a)/Ki(h-V1b)” value in experiment [1] was “+++ (>75)”. Besides, in experiment [2], the Ki (usually a measure of affinity in units of concentration, obtained from inhibition or displacement) was in the range of 1 to 10 nM.
With `C[C@H](NC(=O)Cn1c(-c2cccc(Cl)c2)nc2ccc([C@H]3C[C@@H](CN4CCCCC4)C3)cc2c1=O)C(F)(F)F` [Example 45], the “Ki(h-V1a)/Ki(h-V1b)” value in experiment [1] is listed as “+++ (>75)”. In experiment [2], this molecule came in with a Ki of 1 to 10 nM.
In the same order, the values of `C[C@@H](NC(=O)Cn1c(-c2cccc(Cl)c2)nc2ccc([C@H]3C[C@@H](CN4CCCCC4)C3)cc2c1=O)C(F)(F)F` [Example 46] are “++ (25-75)” and 10 to 100 nM.
